Literature values in patent publication US20080146444A1, “Method and compositions for improving plant growth” (Polymer Ventures, Inc., priority 2006, published 2008).

What was measured:
Xylella fastidiosa = settings: 62.5 ppm
cucumber seed radicle = settings: levels as low as 7-174 ppm (0.00002 M to 0.0005 M)
plant = settings: applied at 14 ppm to 1400 ppm (0.1-10 millimolar)

Compound: CC(C)=CCCC(C)=CC=O [citral]
- kill of Xylella fastidiosa (Xylella fastidiosa): incomplete kill

Compound: CC(C)C1CCC(C)(O)C([N+](C)(C)C2CCCC2)C1.[Br-] (stereo not shown) [cyclopentyl dimethyl (1-hydroxy-p-menth-2-yl)ammonium bromide]
- cucumber seed radicle growth (cucumber seed radicle): inhibited

Compound: C=C(C)[C@H]1CC=C(C)CC1 [limonene]
- plant primary root growth (plant): no improvement
- seed germination (plant): no improvement
